In US7879881B2, “Piperidinyl compounds that selectively bind integrins” (Janssen Pharmaceutica NV, priority 2002, dated 2011):

Tests used:
[1] = target: GP IIb/IIIa (Homo sapiens, UniProt P05106+P08514); experiment: In Vitro Solid Phase Purified GP IIb/IIIa Binding Assay (biotinylated fibrinogen); conditions: biotinylated fibrinogen binding to immobilized purified GP IIb/IIIa; mean ± spread; read-out: αIIbβ3 IC50
Method: In Vitro Solid Phase Purified GP IIb/IIIa Binding Assay
The plate was covered and incubated overnight at 4° C. The GP IIb/IIIa solution was discarded and 150 μL of 5% BSA was added and incubated at RT for 1-3 h. The plate was washed extensively with modified Tyrodes buffer. Biotinylated fibrinogen (25 μL/well) at 2× final concentration was added to the wells that contain the test compounds (25 μL/well). The plate was covered and incubated at RT for 2-4 h. Twenty minutes prior to incubation completion, one drop of Reagent A (VectaStain ABC Horseradish Peroxidase kit, Vector Laboratories, Inc.) and one drop Reagent B were added with mixing to 5 mL modified Tyrodes buffer mix and let stand. The ligand solution was discarded and the plate washed (5×200 μL/well) with modified Tyrodes buffer. […] The Vecta Stain solution was discarded and the wells washed (5×200 μL/well) with modified Tyrodes buffer. Developing buffer (10 mL of 50 mM citrate/phosphate buffer @ pH 5.3, 6 mg o-phenylenediamine, 6 μL 30% H2O2; 50 μL/well) was added and incubated at RT for 3-5 min and then 2 N H2SO4 (50 μL/well) was added.

[2] = target: T1, human purified αVβ5 (Homo sapiens, UniProt P06756+P18084); experiment: In Vitro Solid Phase Purified αcβ5 Binding Assay (vitronectin/αVβ5); conditions: vitronectin binding to immobilized purified human αVβ5; mean ± spread; read-out: αvβ5 IC50
T1 construct: purchased Chemicon International, Inc
T1 sequence (P06756 31-889 limits assumed): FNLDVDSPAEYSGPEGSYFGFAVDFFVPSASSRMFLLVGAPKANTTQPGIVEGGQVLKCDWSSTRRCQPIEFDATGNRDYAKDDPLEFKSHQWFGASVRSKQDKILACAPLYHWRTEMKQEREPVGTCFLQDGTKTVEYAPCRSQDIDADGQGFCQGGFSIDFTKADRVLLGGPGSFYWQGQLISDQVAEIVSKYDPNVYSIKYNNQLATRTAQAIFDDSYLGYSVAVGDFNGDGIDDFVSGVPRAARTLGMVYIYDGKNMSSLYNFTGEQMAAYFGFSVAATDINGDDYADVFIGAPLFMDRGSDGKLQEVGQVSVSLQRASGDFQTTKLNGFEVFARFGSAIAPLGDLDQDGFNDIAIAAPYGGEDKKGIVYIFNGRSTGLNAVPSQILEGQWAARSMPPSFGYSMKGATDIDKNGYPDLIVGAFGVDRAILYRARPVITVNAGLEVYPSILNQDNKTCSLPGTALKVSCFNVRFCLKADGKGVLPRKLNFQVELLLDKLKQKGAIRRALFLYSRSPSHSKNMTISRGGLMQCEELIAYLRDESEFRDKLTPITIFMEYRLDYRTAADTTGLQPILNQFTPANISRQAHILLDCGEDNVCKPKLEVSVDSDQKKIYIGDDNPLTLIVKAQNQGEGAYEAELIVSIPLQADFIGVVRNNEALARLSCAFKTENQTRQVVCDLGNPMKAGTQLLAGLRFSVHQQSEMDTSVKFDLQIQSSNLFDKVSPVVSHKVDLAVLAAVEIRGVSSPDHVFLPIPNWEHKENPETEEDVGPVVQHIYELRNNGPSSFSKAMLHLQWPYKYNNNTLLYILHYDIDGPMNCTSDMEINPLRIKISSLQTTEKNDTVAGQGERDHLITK
T1 sequence (P06756 891-1048 partner limits assumed): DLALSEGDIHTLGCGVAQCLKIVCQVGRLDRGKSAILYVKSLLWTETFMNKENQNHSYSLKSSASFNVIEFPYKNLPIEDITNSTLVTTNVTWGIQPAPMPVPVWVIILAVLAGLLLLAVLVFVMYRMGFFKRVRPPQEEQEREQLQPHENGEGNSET
T1 sequence (P18084 24-799): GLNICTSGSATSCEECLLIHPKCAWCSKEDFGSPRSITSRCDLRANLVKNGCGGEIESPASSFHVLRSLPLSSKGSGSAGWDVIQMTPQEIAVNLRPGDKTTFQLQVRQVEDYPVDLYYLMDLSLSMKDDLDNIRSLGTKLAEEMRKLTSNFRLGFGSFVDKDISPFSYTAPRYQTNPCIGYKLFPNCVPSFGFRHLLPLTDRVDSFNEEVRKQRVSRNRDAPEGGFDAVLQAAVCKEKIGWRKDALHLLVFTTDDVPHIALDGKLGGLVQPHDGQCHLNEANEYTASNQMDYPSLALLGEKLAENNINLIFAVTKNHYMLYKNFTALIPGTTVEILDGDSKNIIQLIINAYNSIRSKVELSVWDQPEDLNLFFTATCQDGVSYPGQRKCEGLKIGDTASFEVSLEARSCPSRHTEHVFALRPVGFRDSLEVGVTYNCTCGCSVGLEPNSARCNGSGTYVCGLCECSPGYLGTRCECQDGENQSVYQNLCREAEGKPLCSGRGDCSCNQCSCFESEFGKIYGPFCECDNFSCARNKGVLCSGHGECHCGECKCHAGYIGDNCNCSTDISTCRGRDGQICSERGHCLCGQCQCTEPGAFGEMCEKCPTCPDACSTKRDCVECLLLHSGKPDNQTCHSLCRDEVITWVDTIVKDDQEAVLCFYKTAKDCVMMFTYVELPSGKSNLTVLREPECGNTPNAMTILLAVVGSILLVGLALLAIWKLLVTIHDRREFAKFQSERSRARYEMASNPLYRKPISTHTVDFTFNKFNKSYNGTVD
Method: (§1) Human αvβ3 (Chemicon International Inc., Temecula, Calif.), at a concentration of 1 μg/ml dissolved in Tris buffer (20 mM Tris, 1 mM CaCl2, 1 mM MgCl2, 10 μM MnCl2, 150 mM NaCl), was immobilized on Immulon 96 well plates (Dynex Technologies, Chantilly, Va.) overnight at 4° C. Plates were washed and treated with blocking buffer (3% BSA in Tris buffer) for 2 h at 37° C. Plates were then rinsed 2 times with assay buffer comprised of Tris buffer. Synthesized compounds were added to wells in duplicate immediately prior to the addition of 2 nM vitronectin (Sigma, St. Louis, Mo.). Following a 3 hour incubation at 37° C., plates were washed 5 times in assay buffer. An anti-human vitronectin IgG rabbit polyclonal antibody (Calbiochem, San Diego, Calif.) was added (1:2000) and plates were incubated for 1 hour at room temperature. VectaStain ABC peroxidase kit reagents (Vector Laboratories, Burlingame, Calif.) employing a biotin labeled anti-rabbit IgG, were utilized for detection of bound antibody. Plates were read at 490 nm on a Molecular Devices (Sunnyvale, Calif.) microplate reader.
In Vitro Solid Phase Purified αcβ5 Binding Assay
All other aspects of the assay including buffers, reagents and incubation times remain unchanged.

[3] = target: T2, Human αvβ3 (Homo sapiens, UniProt P05106+P06756); experiment: In Vitro Solid Phase Purified αvβ3 Binding Assay (vitronectin/αvβ3); conditions: vitronectin binding to immobilized purified human αvβ3; mean ± spread; read-out: αvβ3IC50
T2 construct: purchased Chemicon International Inc., Temecula, Calif
T2 sequence (P06756 31-889 limits assumed): as the sequence (P06756 31-889 limits assumed) above
T2 sequence (P06756 891-1048 partner limits assumed): as the sequence (P06756 891-1048 partner limits assumed) above
T2 sequence (P05106 27-788): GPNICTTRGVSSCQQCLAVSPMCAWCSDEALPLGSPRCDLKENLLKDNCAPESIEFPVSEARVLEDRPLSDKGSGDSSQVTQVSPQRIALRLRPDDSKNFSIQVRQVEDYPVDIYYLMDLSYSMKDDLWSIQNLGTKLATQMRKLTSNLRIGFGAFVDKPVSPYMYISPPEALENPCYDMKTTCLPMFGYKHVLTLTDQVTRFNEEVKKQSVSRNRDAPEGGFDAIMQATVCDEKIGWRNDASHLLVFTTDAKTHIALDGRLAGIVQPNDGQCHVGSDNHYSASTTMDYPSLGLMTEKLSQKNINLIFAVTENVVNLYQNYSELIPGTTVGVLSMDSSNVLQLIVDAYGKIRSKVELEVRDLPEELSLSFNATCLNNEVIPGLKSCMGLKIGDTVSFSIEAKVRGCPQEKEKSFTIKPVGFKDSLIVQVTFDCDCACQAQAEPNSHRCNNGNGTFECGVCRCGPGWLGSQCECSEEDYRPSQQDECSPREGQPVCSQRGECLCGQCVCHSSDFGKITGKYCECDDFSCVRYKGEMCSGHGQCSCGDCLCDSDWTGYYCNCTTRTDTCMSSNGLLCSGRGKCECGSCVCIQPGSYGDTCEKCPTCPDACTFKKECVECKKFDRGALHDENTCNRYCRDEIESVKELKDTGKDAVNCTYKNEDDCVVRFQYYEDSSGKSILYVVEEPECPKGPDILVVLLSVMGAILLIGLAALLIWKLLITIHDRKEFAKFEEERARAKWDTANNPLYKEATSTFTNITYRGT
Method: In Vitro Solid Phase Purified αvβ3 Binding Assay
as §1

Sequence of GP IIb/IIIa (P08514 32-887 limits assumed): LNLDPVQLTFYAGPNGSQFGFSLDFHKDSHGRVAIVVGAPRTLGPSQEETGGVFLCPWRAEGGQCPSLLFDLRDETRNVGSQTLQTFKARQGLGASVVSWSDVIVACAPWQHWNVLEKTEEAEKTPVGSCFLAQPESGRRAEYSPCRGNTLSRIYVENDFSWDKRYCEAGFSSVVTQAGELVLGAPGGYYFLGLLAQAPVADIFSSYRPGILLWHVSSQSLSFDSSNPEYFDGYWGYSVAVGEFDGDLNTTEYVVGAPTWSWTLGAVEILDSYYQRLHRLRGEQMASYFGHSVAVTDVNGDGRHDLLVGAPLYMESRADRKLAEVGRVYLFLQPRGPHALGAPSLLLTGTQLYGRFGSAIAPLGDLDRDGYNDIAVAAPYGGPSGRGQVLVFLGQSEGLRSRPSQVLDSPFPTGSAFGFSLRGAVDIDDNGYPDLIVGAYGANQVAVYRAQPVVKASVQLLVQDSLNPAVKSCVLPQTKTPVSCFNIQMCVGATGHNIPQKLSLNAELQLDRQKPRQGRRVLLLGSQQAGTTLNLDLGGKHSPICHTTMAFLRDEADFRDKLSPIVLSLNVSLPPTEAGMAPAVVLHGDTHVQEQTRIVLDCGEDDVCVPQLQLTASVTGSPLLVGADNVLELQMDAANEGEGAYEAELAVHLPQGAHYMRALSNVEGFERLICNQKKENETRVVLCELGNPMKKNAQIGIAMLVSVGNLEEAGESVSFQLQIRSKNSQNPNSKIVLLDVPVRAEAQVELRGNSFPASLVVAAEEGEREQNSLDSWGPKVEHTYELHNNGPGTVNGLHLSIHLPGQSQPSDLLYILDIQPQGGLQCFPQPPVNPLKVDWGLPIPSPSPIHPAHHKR
Sequence of GP IIb/IIIa (P08514 891-1039 partner limits assumed): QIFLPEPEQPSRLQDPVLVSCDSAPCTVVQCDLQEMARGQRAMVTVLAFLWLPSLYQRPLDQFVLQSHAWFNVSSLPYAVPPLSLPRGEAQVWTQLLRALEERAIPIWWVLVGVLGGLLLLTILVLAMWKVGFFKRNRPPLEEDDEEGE
Sequence of GP IIb/IIIa (P05106 27-788): as the sequence (P05106 27-788) above

Compound | IC50 [1] | IC50 [2] | IC50 [3]
O=C(O)CC(CC1CCN(C(=O)CCCc2ccc3c(n2)NCCC3)CC1)c1cnc2ccccc2c1 (stereo not drawn) [Cpd 29, β-[[1-[1-oxo-4-(5,6,7,8-tetrahydro-1,8-naphthyridin-2-yl)butyl]-4-piperidinyl]methyl]-3-quinolinepropanoic acid] | 1740 ± 890 nM | 119 ± 15 nM | 2.2 ± 0.8 nM
O=C(O)CCC1CCN(C(=O)Cc2cccc(NC3=NCCCN3)c2)CC1 [Cpd 1, 1-[[3-[(1,4,5,6-Tetrahydro-2-pyrimidinyl)amino]phenyl]acetyl]-4-piperidinepropanoic acid] | 4330 ± 150 nM | > 5000 nM | 56 ± 7 nM
O=C(O)CC(CC1CCN(C(=O)CCc2ccc3c(n2)NCCC3)CC1)c1ccc(Oc2ccccc2)cc1 (stereo not drawn) [Cpd 43, 1-[1-oxo-3-(5,6,7,8-tetrahydro-1,8-naphthyridin-2-yl)propyl]-β-(4-phenoxyphenyl)-4-piperidinebutanoic acid] | 28800 ± 15800 nM | 222 ± 88.5 nM | 7.9 ± 0.7 nM
O=C(O)CC(c1cnc2ccccc2c1)C1CCN(C(=O)Cc2cccc(NC3=NCC(O)CN3)c2)CC1 (stereo not drawn) [Cpd 3, β-[1-[[3-[(1,4,5,6-Tetrahydro-5-hydroxy-2-pyrimidinyl)amino]phenyl]acetyl]-4-piperidinyl]-3-quinolinepropanoic acid] | 210 nM | 2500 nM | 3.6 ± 0.4 nM
COc1ccc(C(CC(=O)O)CC2CCN(C(=O)CCc3ccc4c(n3)NCCC4)CC2)cn1 (single isomer, unassigned) [Cpd 28b, 6-methoxy-β-[[1-[1-oxo-3-(5,6,7,8-tetrahydro-1,8-naphthyridin-2-yl)propyl]-4-piperidinyl]methyl]-3-pyridinepropanoic acid] | 24300 nM | 126 ± 44.8 nM | 20.8 ± 5.3 nM
O=C(O)CC(CC1CCN(C(=O)CCc2ccc3c(n2)NCCC3)CC1)C1CNc2ccccc2C1 (single isomer, unassigned) [Cpd 19-4, 1,2,3,4-tetrahydro-β-[[1-[1-oxo-3-(5,6,7,8-tetrahydro-1,8-naphthyridin-2-yl)propyl]-4-piperidinyl]methyl]-3-quinolinepropanoic acid] | 4860 nM | 7.5 ± 1.8 nM | 1.3 ± 0.7 nM
O=C(O)CC(CC1CCN(C(=O)CCc2ccc3c(n2)NCCC3)CC1)c1ccc(-c2ccccc2)c(F)c1 (stereo not drawn) [Cpd 41, β-(2-fluoro[1,1′-biphenyl]-4-yl)-1-[1-oxo-3-(5,6,7,8-tetrahydro-1,8-naphthyridin-2-yl)propyl]-4-piperidinebutanoic acid] | 19300 ± 2600 nM | 873 ± 158 nM | 1.8 ± 1 nM
O=C(O)CC(c1ccc2c(c1)OCO2)C1CCN(C(=O)Cc2ccc3c(n2)NCCC3)CC1 (stereo not drawn) [Cpd 16, β-(1,3-benzodioxol-5-yl)-1-[(5,6,7,8-tetrahydro-1,8-naphthyridin-2-yl)acetyl]-4-piperidinepropanoic acid] | 25400 nM | 775 nM | 281 nM
O=C(O)CC(CCC1CCN(C(=O)c2cccc(NC3=NCC(O)CN3)c2)CC1)c1ccc2c(c1)OCO2 (stereo not drawn) [Cpd 54, β-(1,3-benzodioxol-5-yl)-1-[3-[(1,4,5,6-tetrahydro-5-hydroxy-2-pyrimidinyl)amino]benzoyl]-4-piperidinepentanoic acid] | 240 nM | 34.7 ± 11.7 nM | 1.7 ± 0.5 nM
CNc1cccc(C(CC(=O)O)CC2CCN(C(=O)CCc3ccc4c(n3)NCCC4)CC2)c1 (racemic) [Cpd 79, 3-(3-Methylamino-phenyl)-4-[1-(3-5,6,7,8-tetrahydro-[1,8]naphthyridin-2-yl-propionyl)-piperidin-4-yl]-butyric acid] | 40200 nM | 25 ± 6 nM | 3.5 ± 1.5 nM
O=C(O)CC(CC1CCN(C(=O)CCc2ccc3c(n2)NCCC3)CC1)c1ccc2c(c1)OCCO2 (racemic) [Cpd 65] | 3840 nM | 34.6 ± 0.2 nM | 0.8 nM

Second part, the compound after the results:

IC50 [1] | IC50 [2] | IC50 [3] | Compound
1470 ± 370 nM | 4.6 ± 1.7 nM | 1.4 ± 0.7 nM | COc1ncc(C(CC(=O)O)CC2CCN(C(=O)CCc3ccc4c(n3)NCCC4)CC2)c(OC)n1 (stereo not drawn) [Cpd 47, 2,4-dimethoxy-β-[[1-[1-oxo-3-(5,6,7,8-tetrahydro-1,8-naphthyridin-2-yl)propyl]-4-piperidinyl]methyl]-5-pyrimidinepropanoic acid]
6600 ± 1420 nM | 31.3 ± 6 nM | 0.8 ± 0.1 nM | COc1ccc(C(CC(=O)O)C2CCN(C(=O)CCCc3ccc4c(n3)NCCC4)CC2)cn1 (stereo not drawn) [Cpd 17, 6-methoxy-β-[1-[1-oxo-4-(5,6,7,8-tetrahydro-1,8-naphthyridin-2-yl)butyl]-4-piperidinyl]-3-pyridinepropanoic acid]
4530 ± 2470 nM | 30.9 ± 0.6 nM | 1 ± 0.8 nM | COc1ccc(C(CC(=O)O)CC2CCN(C(=O)CCc3ccc4c(n3)NCCC4)CC2)cc1 (racemic) [Cpd 60]
21600 ± 4870 nM | 300 nM | 33 nM | O=C(O)CC(CC1CCN(C(=O)CCCc2ccc3c(n2)NCCC3)CC1)c1cccc(F)c1 (stereo not drawn) [Cpd 31, β-(3-fluorophenyl)-1-[1-oxo-4-(5,6,7,8-tetrahydro-1,8-naphthyridin-2-yl)butyl]-4-piperidinebutanoic acid]
570 ± 40 nM | > 50000 nM | 6.4 ± 1.4 nM | β-[2-[1-[1-oxo-3-(5,6,7,8-tetrahydro-1,8-naphthyridin-2-yl)propyl]-4-piperidinyl]ethyl]-3-quinolinepropanoic acid [Cpd 52]
37500 ± 31600 nM | 25.3 ± 7.3 nM | 4.5 ± 0.7 nM | O=C(O)CCCC1CCN(C(=O)CCc2ccc3c(n2)NCCC3)CC1 [Cpd 61]
> 50000 nM | > 1000 nM | 193 nM | CC(C)(C)C(=O)OCOC(=O)CCCC1CCN(C(=O)CCc2ccc3c(n2)NCCC3)CC1 [Cpd 74, 4-[1-(3-5,6,7,8-Tetrahydro-[1,8]naphthyridin-2-yl-propionyl)-piperidin-4-yl]-butyric acid 2,2-dimethyl-propionyloxymethyl ester]
24700 nM | 26 ± 3 nM | 5.7 ± 0.1 nM | CCNc1cccc(C(CC(=O)O)CC2CCN(C(=O)CCc3ccc4c(n3)NCCC4)CC2)c1 (racemic) [Cpd 78, 3-(3-Ethylamino-phenyl)-4-[1-(3-5,6,7,8-tetrahydro-[1,8]naphthyridin-2-yl-propionyl)-piperidin-4-yl]-butyric acid]
15600 nM | 737 nM | 95 nM | O=C(O)CC(CCC1CCN(C(=O)Cc2ccc3c(n2)NCCC3)CC1)c1ccc2c(c1)OCO2 (stereo not drawn) [Cpd 55, β-(1,3-benzodioxol-5-yl)-1-[(5,6,7,8-tetrahydro-1,8-naphthyridin-2-yl)acetyl]-4-piperidinepentanoic acid]
1670 nM | 33.5 ± 7.5 nM | 2.4 ± 1.3 nM | COc1ccc(C(CCC2CCN(C(=O)c3cccc(NC4=NCC(O)CN4)c3)CC2)CC(=O)O)cn1 (stereo not drawn) [Cpd 10, 6-Methoxy-β-[2-[1-[3-[(1,4,5,6-tetrahydro-5-hydroxy-2-pyrimidinyl)amino]benzoyl]-4-piperidinyl]ethyl]-3-pyridinepropanoic acid]
430 ± 70 nM | 195 nM | 4.6 ± 0.8 nM | O=C(O)CC(CCC1CCN(C(=O)CCCNc2ccccn2)CC1)c1cnc2ccccc2c1 (stereo not drawn) [Cpd 22, β-[2-[1-[1-oxo-4-(2-pyridinylamino)butyl]-4-piperidinyl]ethyl]-3-quinolinepropanoic acid]
1620 ± 50 nM | 540 nM | 7.6 ± 2.1 nM | O=C(O)CC(CCC1CCN(C(=O)c2cccc(NC3=NCCCN3)c2)CC1)c1cccnc1 (stereo not drawn) [Cpd 6, β-[2-[1-[3-[(1,4,5,6-Tetrahydro-2-pyrimidinyl)amino]benzoyl]-4-piperidinyl]ethyl]-3-pyridinepropanoic acid]
1360 ± 430 nM | 253 nM | 17.9 ± 3.4 nM | O=C(O)CC(CCC1CCN(C(=O)CCc2ccc3c(n2)NCCC3)CC1)c1cccnc1 (stereo not drawn) [Cpd 8, β-[2-[1-[1-Oxo-3-(5,6,7,8-tetrahydro-1,8-naphthyridin-2-yl)propyl]-4-piperidinyl]ethyl]-3-pyridinepropanoic acid]
